Laboratory results: PubChem BioAssay (NCI)
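96-well plates; 48 h exposure; 5 concentrations. Endpoints by linear interpolation between flanking doses. Not reached: highest tested concentration assigned. TGI denotes the concentration required for complete inhibition of growth.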

Tests used:
Assay in all cases: inhibition of tumour cell growth, NCI panel, 48 h
[1] = test system: NCI-H226 lung
[2] = test system: UACC-62 melanoma
[3] = test system: A549 NSCLC
[4] = test system: HCT-15 colon
[5] = test system: U251 CNS
[6] = test system: RXF 393 renal
[7] = test system: NCI-H522 lung
[8] = test system: HOP-62 NSCLC
[9] = test system: LOX IMVI melanoma
[10] = test system: SF-295 CNS
[11] = test system: M14 melanoma
[12] = test system: OVCAR-8 ovarian
[13] = test system: NCI-H23 lung

Row | SMILES | TGI [1] [µM] | TGI [2] [µM] | TGI [3] [µM] | TGI [4] [µM] | TGI [5] [µM] | TGI [6] [µM] | TGI [7] [µM] | TGI [8] [µM] | TGI [9] [µM] | TGI [10] [µM] | TGI [11] [µM] | TGI [12] [µM] | TGI [13] [µM]
1 | Cc1ccc2[nH]c3c(c2c1)C1CCC(C(C)(C)C)CC1C1C(=O)N(c2ccc(Oc4ccccc4)cc2)C(=O)C31 (stereo not given) | > 86.9 | > 100 | > 100 | > 100 | 21.6 | 29.1 | 45 | > 100 | > 100 | > 100 | > 100 | 38.6 | 58.9
2 | CCCCCCCCCCCCCOCCOCCOCCCCC(O)CCCCCCCCCC1=C[C@H](C)OC1=O (stereo not given in full) | 38 | 54 | 36.9 | 48 | 42.2 | 47.5 | 16.7 | > 100 | 42.6 | 29.2 | > 100 | > 100 | 60
3 | O=c1[nH]c2c(C(F)(F)F)c(Cl)c(-c3ccccc3)nc2o1 | > 100 | > 100 | > 100 | > 100 | 85.6 | 75.3 | > 100 | > 100 | > 100 | > 100 | > 100 | > 100 | 52.1
4 | COC(=O)C12C(=O)CC3CCC1C32C(=O)OC (stereo not given) | > 100 | > 100 | > 100 | > 100 | > 100 | > 100 | > 100 | > 100 | > 100 | > 100 | > 100 | > 100 | > 100
5 | COc1ccc(OC)c([N+](=O)[O-])c1-c1nc2sc(Cl)cn2c1/C=N/N=C(N)N | 44.1 | 29.5 | 58.3 | > 100 | > 100 | 48.3 | 37.9 | > 100 | > 100 | 50.2 | > 100 | 43.1 | 60.7
6 | C/C(=N/NC(=S)N1CCCCCC1)c1cccc(/C(C)=N\NC(=S)N2CCCCCC2)n1 | 3.31 | 5.27 | 4.86 | 5.36 | 4.77 | 3.69 | 6.42 | 3.82 | 3.41 | 4.12 | 3.53 | 3.11 | 5.44
7 | COc1cc(/C=C2\CC3C4CC=C5C[C@@H](O)CC[C@]5(C)C4CC[C@]3(C)\C2=N\O)cc(OC)c1OC (stereo not given in full) | 60.9 | 24 | > 100 | 38.5 | 28.2 | 25.1 | > 100 | > 100 | 63.2 | 22 | 27.6 | > 100 | 55.5
8 | Cc1c2ccccc2c(=O)n2c(-c3ccccn3)cccc12 | > 100 | > 100 | > 100 | > 100 | > 100 | > 100 | > 100 | > 100 | > 100 | > 100 | > 100 | > 100 | > 100
9 | CC1(N2CCOCC2)CC2C(=[N+]1[O-])CCC/C2=N/O (stereo not given) | > 100 | > 100 | > 100 | > 100 | > 100 | > 100 | > 100 | > 100 | > 100 | > 100 | > 100 | > 100 | > 100
10 | Cc1cc(C)c2c(-c3ccccc3)cc(=O)[nH]c2c1 | > 100 | > 100 | > 100 | > 100 | > 100 | > 100 | > 100 | > 100 | > 100 | > 100 | > 100 | > 100 | > 100
11 | C[N+](C)(N)Cc1nc(-c2ccc(Cl)cc2)no1 | > 100 | > 100 | > 100 | > 100 | > 100 | > 100 | > 100 | > 100 | > 100 | > 100 | > 100 | > 100 | > 100
12 | Nc1nc(N)c2cc(-c3cc4ccccc4[nH]3)ccc2n1 | 93.7 | 33.9 | > 100 | 55 | > 100 | 48.4 | 42.4 | > 100 | 36.3 | 90.2 | 34.4 | > 100 | > 100
13 | CN(C)N1C(=C(C#N)C#N)C(c2ccccc2)CC1C#N (stereo not given) | > 100 | > 100 | > 100 | > 100 | > 100 | > 100 | > 100 | > 100 | > 100 | > 100 | > 100 | > 100 | > 100
14 | CCOc1cc2c(cc1OC)c[n+](C)c1c3cc(OC)c(OC)cc3ccc21 | 99 | > 100 | > 100 | > 100 | > 48.2 | 73.5 | > 100 | > 100 | > 81.3 | > 100 | > 100 | > 100 | > 100
15 | COc1ccc(C2c3cc4c(cc3OC(N3CCOCC3)C2C)OCO4)cc1OC (stereo not given) | 31.7 | > 82.9 | > 85 | > 100 | 29.5 | 25.4 | 22.8 | 72.6 | > 93.7 | 32.8 | 52.3 | > 100 | > 89.6
